Toxic doses and inconclusive results are not listed. Rule as the data show it: active = T/C of 150% or more; inactive = T/C below 125%.
Test system: L1210 leukemia ip in BDF1 mice, survival T/C
Assay: NCI In Vivo Anticancer Drug Screen. Data for tumor model L1210 Leukemia (intraperitoneal) in B6D2F1 (BDF1) mice
Conditions: endpoint: mean survival time, higher = longer survival
In short: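 In this screen, tumor-bearing mice given compound are compared to those given vehicle, and their survival values are reported as a treated-to-control quotient.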

[1] = dose: 100.0 mg/kg/injection, schedule: Q04DX003 (ip), vehicle: saline
[2] = dose: 200.0 mg/kg/injection, schedule: Q04DX003 (ip), vehicle: saline

Measured: T/C

COC(=O)C(Cc1c[nH]c2ccccc12)NC(=O)CNC(=O)OCc1ccccc1 (stereo unspecified)
inactive: dose: 100.0 mg/kg/injection, schedule: Q04DX003 (ip), vehicle: other 98 % of control | dose: 200.0 mg/kg/injection, schedule: Q04DX003 (ip), vehicle: other 102 % of control | dose: 400.0 mg/kg/injection, schedule: Q04DX003 (ip), vehicle: other 98 % of control

CCN(CC)C(N)=O
inactive: dose: 100.0 mg/kg/injection, schedule: Q01DX009 (ip), vehicle: saline 92 % of control | [1] 102 % of control | dose: 200.0 mg/kg/injection, schedule: Q01DX009 (ip), vehicle: saline 118 % of control | [2] 107 % of control | dose: 400.0 mg/kg/injection, schedule: Q01DX009 (ip), vehicle: saline 101 % of control | dose: 400.0 mg/kg/injection, schedule: Q04DX003 (ip), vehicle: saline 107 % of control

NC(=O)CSSCC(N)=O
inactive: [1] 98 % of control | [2] 93 % of control

COc1cc(C=Nc2ccc(-c3csc(COc4ccccc4)n3)c(Cl)c2)ccc1N(CCCl)CCCl
inactive: dose: 5.0 mg/kg/injection, schedule: Q01DX015 (ip), vehicle: carboxymethylcellulose (CMC) 111 % of control | dose: 10.0 mg/kg/injection, schedule: Q01DX015 (ip), vehicle: carboxymethylcellulose (CMC) 113 % of control | dose: 20.0 mg/kg/injection, schedule: Q01DX015 (ip), vehicle: carboxymethylcellulose (CMC) 104 % of control | dose: 44.0 mg/kg/injection, schedule: Q01DX015 (ip), vehicle: carboxymethylcellulose (CMC) 97 % of control | dose: 200.0 mg/kg/injection, schedule: Q01DX001 (sc), vehicle: carboxymethylcellulose (CMC) 118 % of control

CCOc1ccc(/C=N/Nc2ccc([N+](=O)[O-])cc2)cc1OC
inactive: dose: 25.0 mg/kg/injection, schedule: Q01DX009 (ip), vehicle: saline sonified 93 % of control | dose: 37.5 mg/kg/injection, schedule: Q01DX009 (ip), vehicle: saline with Tween-80 91 % of control | dose: 50.0 mg/kg/injection, schedule: Q01DX009 (ip), vehicle: saline sonified 103 % of control | dose: 75.0 mg/kg/injection, schedule: Q01DX009 (ip), vehicle: saline with Tween-80 93 % of control | dose: 100.0 mg/kg/injection, schedule: Q01DX009 (ip), vehicle: saline sonified 98 % of control | dose: 100.0 mg/kg/injection, schedule: Q04DX003 (ip), vehicle: saline with Tween-80 90 % of control | dose: 150.0 mg/kg/injection, schedule: Q01DX009 (ip), vehicle: saline with Tween-80 96 % of control | dose: 200.0 mg/kg/injection, schedule: Q04DX003 (ip), vehicle: saline with Tween-80 97 % of control | dose: 400.0 mg/kg/injection, schedule: Q04DX003 (ip), vehicle: saline sonified 88 % of control | dose: 400.0 mg/kg/injection, schedule: Q04DX003 (ip), vehicle: saline with Tween-80 87 % of control

Reference: PubChem BioAssay AID248 (DTP/NCI, 2004)
